Data: patent US20240059655A1, “HETEROCYCLIC G-PROTEIN-COUPLED RECEPTOR 52 (GPR52) AGONISTS” (Board of Regents, The University of Texas System, priority 2020, published 2024)
Like-named read-outs stand apart in the source and are kept apart here.

Columns and labels:
human GPR52 [1] = molecular target: T1, human GPR52 (Homo sapiens (Human), UniProt Q9Y2T5); test: Glosensor cAMP assay in HEK293 cells transiently expressing human GPR52; assay type: cell-based
Target sequence in this assay (Q9Y2T5 whole entry): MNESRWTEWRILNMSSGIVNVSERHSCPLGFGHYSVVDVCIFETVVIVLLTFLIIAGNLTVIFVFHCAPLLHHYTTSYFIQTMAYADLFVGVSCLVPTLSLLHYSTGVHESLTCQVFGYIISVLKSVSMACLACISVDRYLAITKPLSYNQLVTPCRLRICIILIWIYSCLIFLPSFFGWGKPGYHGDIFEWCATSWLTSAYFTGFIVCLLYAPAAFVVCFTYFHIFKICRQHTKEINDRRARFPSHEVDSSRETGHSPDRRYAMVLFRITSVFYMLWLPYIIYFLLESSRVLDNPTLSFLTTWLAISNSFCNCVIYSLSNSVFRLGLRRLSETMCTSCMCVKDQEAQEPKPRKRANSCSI

human GPR52 [2] = molecular target: T1, human GPR52; test: TANGO β-arrestin recruitment assay in HTLA cells expressing GPR52 TANGO construct; settings: read-out: β-Arrestin Recruitment Emax (%)
Target sequence in this assay (Q9Y2T5 whole entry, looked up, change not shown): as the sequence (Q9Y2T5 whole entry) above

GPR52 = settings: relative to compound 4a
Experimental: Bias factor calculations. Mean efficacy (Emax) and potency (EC50) were taken from at least three independent experiments for all compounds tested in both the cAMP and β-arrestin recruitment assays. Formulas for bias factor calculations were adapted from Kenakin^37. […] A ΔΔ log(Emax/EC50) value for each compound was calculated by subtraction of Δ log(Emax/EC50)β-arrestin from Δ log(Emax/EC50)cAmP. The inverse log of this ΔΔ log(Emax/EC50) value is the G protein bias factor. Conversely, the β-arrestin bias factor is calculated from the inverse log of ΔΔ log(Emax/EC50) when Δ log(Emax/EC50)cAmP is subtracted from Δ log(Emax/EC50)β-arrestin.

[3] = HEK293, cAMP assay, relative to compound 4 as 100% and 0.5% DMSO as 0%, mean ± SEM, "—" not detected, read-out: Emax (%)

SMILES	Emax (human GPR52 [1]; [3]) [%]	Emax (human GPR52 [1]; HEK293) [%]	also measured
COC(=O)C(NC(=O)c1cccc(Nc2cc(Cc3cccc(C(F)(F)F)c3)ccn2)c1)[C@@H](C)O (stereo in doubt) [PW0673, Methyl (3-((4-(3-(trifluoromethyl)benzyl)pyridin-2-yl)amino)benzoyl)-D-allothreoninate]	164 ± 12	–	–
O=C(N[C@@H](CO)C(O)c1ccccc1)c1cccc(Nc2cc(Cc3cccc(C(F)(F)F)c3)ccn2)c1 (stereo in doubt) [PW0675, N-((1S)-1,3-Dihydroxy-1-phenylpropan-2-yl)-3-((4-(3-(trifluoromethyl)benzyl)pyridin-2-yl)amino)benzamide]	188 ± 11	–	–
O=C(NCCO)c1cccc2c1CCN2c1ccnc(Cc2cc(F)cc(C(F)(F)F)c2)n1 [Compound 12a, 1-(2-(3-Fuoro-5-(trifluoromethyl)benzyl)pyrimidin-4-yl)-N-(2-hydroxyethyl)indoline-4-carboxamide]	144	–	–
O=C(NCCO)c1cccc2c1CCN2c1nccc(Cc2cc(F)cc(C(F)(F)F)c2)n1 [Compound 12d, 1-(4-(3-Fluoro-5-(trifluoromethyl)benzyl)pyrimidin-2-yl)-N-(2-hydroxyethyl)indoline-4-carboxamide]	138 ± 8	–	–
Cc1c(Cc2cc(F)cc(C(F)(F)F)c2)cnnc1N1CCc2c(C(=O)NCCO)cccc21 [Compound 12e, 1-(5-(3-Fluoro-5-(trifluoromethyl)benzyl)-4-methylpyridazin-3-yl)-N-(2-hydroxyethyl)indoline-4-carboxamide]	–	119 ± 6	decreased EC50 (loss of potency) on adding a 2-substituent to compound 12b (human GPR52 [1]): > 4 fold
O=C(NCCO)c1cccc2c1CCN2c1nncc(Cc2cc(F)cc(C(F)(F)F)c2)c1Cl [Compound 12f, 1-(4-Chloro-5-(3-fluoro-5-(trifluoromethyl)benzyl)pyridazin-3-yl)-N-(2-hydroxyethyl)indoline-4-carboxamide]	–	97 ± 7	decreased EC50 (loss of potency) on adding a 2-substituent to compound 12b (human GPR52 [1]; cAMP EC50): > 4 fold
O=C(c1cc(F)cc(C(F)(F)F)c1)c1cc(N2CCc3c(C(=O)NCCO)cccc32)ncn1 [Compound 25b, 1-(6-(3-Fluoro-5-(trifluoromethyl)benzoyl)pyrimidin-4-yl)-N-(2-hydroxyethyl)indoline-4-carboxamide]	22 ± 3	–	–
O=C(c1cccc(C(F)(F)F)c1)c1cc(N2CCc3c(C(=O)NCCO)cccc32)ncn1 [Compound 25c, N-(2-Hydroxyethyl)-1-(6-(3-(trifluoromethyl)benzoyl)pyrimidin-4-yl)indoline-4-carboxamide]	22 ± 4	–	–
O=C(NCCO)c1cccc2c1CCN2c1nccc(C(O)c2cc(F)cc(C(F)(F)F)c2)n1 (stereo not drawn) [Compound 25d]	130 ± 9	–	–
O=C(NCCO)c1cccc2c1CCN2c1cc(C(O)c2cc(F)cc(C(F)(F)F)c2)ncn1 (stereo not drawn) [Compound 25e]	134 ± 28	–	–
O=C(NCCO)c1cccc2c1CCN2c1nccc(C(F)c2cc(F)cc(C(F)(F)F)c2)n1 (stereo not drawn) [Compound 25g, 1-(4-(Fluoro(3-fluoro-5-(trifluoromethyl)phenyl)methyl)pyrimidin-2-yl)-N-(2-hydroxyethyl)indoline-4-carboxamide]	144 ± 9	–	–
O=C(NCCO)c1cccc2c1CCN2c1cc(C(F)c2cccc(C(F)(F)F)c2)ncn1 (stereo not drawn) [Compound 25i, 1-(6-(Fluoro(3-(trifluoromethyl)phenyl)methyl)pyrimidin-4-yl)-N-(2-hydroxyethyl)indoline-4-carboxamide]	83 ± 5	–	–
O=C(NCCO)c1cccc2c1CCN2c1cc(Nc2cccc(C(F)(F)F)c2)ncn1 [Compound 25j]	81 ± 2	–	–
O=C(NCCO)c1cccc2c1CCN2c1cc(Oc2cccc(C(F)(F)F)c2)ncn1 [Compound 25k, N-(2-Hydroxyethyl)-1-(6-(3-(trifluoromethyl)phenoxy)pyrimidin-4-yl)indoline-4-carboxamide]	99 ± 4	–	–
O=C(NCCO)c1cccc2c1CCN2c1cc(Sc2cccc(C(F)(F)F)c2)ncn1 [Compound 25l]	123 ± 6	–	–
O=C(c1cccc2c1CCN2c1cc(Cc2cc(F)cc(C(F)(F)F)c2)ncn1)N1CC(O)C1 [Compound 30e, (1-(6-(3-Fluoro-5-(trifluoromethyl)benzyl)pyrimidin-4-yl)indolin-4-yl)(3-hydroxyazetidin-1-yl)methanone]	111 ± 10	–	–
O=C(c1cccc2c1CCN2c1cc(Cc2cc(F)cc(C(F)(F)F)c2)ncn1)N(CCO)CCO [Compound 30g, 1-(6-(3-Fluoro-5-(trifluoromethyl)benzyl)pyrimidin-4-yl)-N,N-bis(2-hydroxyethyl)indoline-4-carboxamide]	119 ± 15	–	–
O=C(N[C@H]1CC[C@H](O)CC1)c1cccc(Nc2cc(Cc3cccc(C(F)(F)F)c3)ccn2)c1 [PW0674, N-((1r,4R)-4-Hydroxycyclohexyl)-3-((4-(3-(trifluoromethyl)benzyl)pyridin-2-yl)amino)benzamide]	–	131 ± 13	–
O=C(NC(CO)CO)c1cccc(Nc2cc(Cc3cccc(C(F)(F)F)c3)ccn2)c1 [PW0676, N-(1,3-Dihydroxypropan-2-yl)-3-((4-(3-(trifluoromethyl)benzyl)pyridin-2-yl)amino)benzamide]	–	214 ± 19	Emax (human GPR52 [2]): 125 ± 12%; G Protein Bias Factor (GPR52): 66.3; β-Arrestin Bias Factor (GPR52): 0.015
O=C(NCC(O)CO)c1cccc(Nc2cc(Cc3cccc(C(F)(F)F)c3)ccn2)c1 (stereo not drawn) [PW0677, N-(2,3-Dihydroxypropyl)-3-((4-(3-(trifluoromethyl)benzyl)pyridin-2-yl)amino)benzamide]	–	268 ± 12	Emax (human GPR52 [2]): 127 ± 7%; G Protein Bias Factor (GPR52): 63.2; β-Arrestin Bias Factor (GPR52): 0.016
O=C(c1cccc(Nc2cc(Cc3cccc(C(F)(F)F)c3)ccn2)c1)N1CCOCC1 [PW0823]	–	93 ± 7	–
O=C(NCC(F)F)c1cccc(Nc2cc(Cc3cccc(C(F)(F)F)c3)ccn2)c1 [PW0824]	–	152 ± 7	–
COCCNC(=O)c1cccc(Nc2cc(Cc3cccc(C(F)(F)F)c3)ccn2)c1 [PW0825, N-(2-Methoxyethyl)-3-((4-(3-(trifluoromethyl)benzyl)pyridin-2-yl)amino)benzamide]	–	131 ± 15	–
O=C(NCCCCO)c1cccc(Nc2cc(Cc3cccc(C(F)(F)F)c3)ccn2)c1 [PW0832, N-(4-Hydroxybutyl)-3-((4-(3-(trifluoromethyl)benzyl)pyridin-2-yl)amino)benzamide]	–	129 ± 8	–
Cc1c(Nc2cc(Cc3ccc(Cl)cc3F)ccn2)cccc1C(=O)NCCO [PW0868, 3-((4-(4-Chloro-2-fluorobenzyl)pyridin-2-yl)amino)-N-(2-hydroxyethyl)-2-methylbenzamide]	–	131 ± 8	–
